The target in the experiment is Oplophorus-luciferin 2-monooxygenase catalytic subunit (Oplophorus gracilirostris, UniProt Q9GV45). Description: NanoLuc Inhibition Assay. How it is done: NanoLuc enzyme was diluted to 0.4 ng/mL in CO2 independent media + 10% FBS to make the detection reagent. A 3× dilution series of each inhibitor was then made in the detection reagent. A "no inhibitor" control was also made for each sample. A total of 50 μL of each inhibitor dilution was mixed with 50 μL of NanoGlo buffer containing 20 μM furimazine (final furimazine concentration is 10 μM, which is atKM), and luminescence was measured. Each sample was normalized to the "no inhibitor" control.

SMILES strings stand for the structures. Where a name gives a salt, the structure may show the parent alone.

Chain of Oplophorus-luciferin 2-monooxygenase catalytic subunit (Q9GV45 whole entry): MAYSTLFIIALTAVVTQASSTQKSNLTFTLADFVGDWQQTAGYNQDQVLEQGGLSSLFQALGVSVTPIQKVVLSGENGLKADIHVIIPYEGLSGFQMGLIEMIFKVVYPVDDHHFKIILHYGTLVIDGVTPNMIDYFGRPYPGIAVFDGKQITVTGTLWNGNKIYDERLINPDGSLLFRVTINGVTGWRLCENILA

In general, IC50 refers to the concentration at which inhibition is half-maximal. A low value points to inhibition by little substance. `CCN(C(=O)Cn1c(C(=O)N[C@H]2CC[C@H](C(=O)NCCCCCCNC(=O)c3ccc4c(c3)C3(OC4)c4ccc(O)cc4Oc4cc(O)ccc43)CC2)cc2sccc21)c1cccc(C)c1` [N-(trans-4-((6-(3',6'-dihydroxy-3-oxo-3H-spiro[isobenzofuran-1,9'-xanthene]-5(6)carboxamido)hexyl)carbamoyl)cyclohexyl)-4-(2-(ethyl(m-tolyl)amino)-2-oxoethyl)-4Hthieno[3,2-b]pyrrole-5-carboxamide (47)] gave an IC50 of 0.049 µM.
`CCN(C(=O)Cn1c(C(=O)NC2CCC(C(=O)NCCN(C)C)CC2)cc2sccc21)c1cccc(C)c1` (trans isomer) [N-(trans-4-((2-(dimethylamino)ethyl)carbamoyl)cyclohexyl)-4-(2-(ethyl(m-tolyl)amino)-2oxoethyl)-4H-thieno[3,2-b]pyrrole-5-carboxamide (36)] gave an IC50 of 17.8 µM.
In the case of `CCN(C(=O)Cn1c(C(=O)NC2CCC(C(=O)NCCCCCC(=O)O)CC2)cc2sccc21)c1cccc(C)c1` (stereo not drawn) [6-(trans-4-(4-(2-(Ethyl(m-tolyl)amino)-2-oxoethyl)-4H-thieno[3,2-b]pyrrole-5carboxamido)cyclohexane-1-carboxamido)hexanoic acid (41)] it was 0.094 µM.
In the case of `CCN(C(=O)Cn1c(C(=O)N[C@H]2CC[C@H](C(=O)OC)CC2)cc2sccc21)c1cccc(C(N)=O)c1` [Methyl trans-4-(4-(2-((3-carbamoylphenyl)(ethyl)amino)-2-oxoethyl)-4H-thieno[3,2-b]pyrrole5-carboxamido)cyclohexane-1-carboxylate (27)] it was 0.24 µM.
Next, `CCN(C(=O)Cn1c(C(=O)N[C@H]2CC[C@H](C(=O)OC)CC2)cc2ccccc21)c1cccc(C)c1` [Methyl trans-4-(1-(2-(ethyl(m-tolyl)amino)-2-oxoethyl)-1H-indole-2-carboxamido)cyclohexane1-carboxylate (29)]: 0.036 µM; `CCc1cccc(N(CC)C(=O)Cn2c(C(=O)N[C@H]3CC[C@H](C(=O)OC)CC3)cc3ccccc32)c1` [Methyl trans-4-(1-(2-(ethyl(3-ethylphenyl)amino)-2-oxoethyl)-1H-indole-2carboxamido)cyclohexane-1-carboxylate (33)]: 0.0054 µM; `CCN(C(=O)Cn1c(C(=O)N2CCCCC2)cc2sccc21)c1cccc(C)c1` [N-ethyl-2-(5-(piperidine-1-carbonyl)-4H-thieno[3,2-b]pyrrol-4-yl)-N-(m-tolyl)acetamide (7)]: 2.6 µM.
`CCOC(=O)Cc1ccc(NC(=O)c2cc3sccc3n2CC(=O)N(CC)c2cccc(C)c2)cc1` [Ethyl 2-(4-(4-(2-(ethyl(m-tolyl)amino)-2-oxoethyl)-4H-thieno[3,2-b]pyrrole-5carboxamido)phenyl)acetate (12)] displayed an IC50 of 4.7 µM.
Next, `CCN(C(=O)Cn1c(C(=O)NC2CCC(C(=O)NCCCCCCO)CC2)cc2sccc21)c1cccc(C)c1` (stereo not drawn) [4-(2-(Ethyl(m-tolyl)amino)-2-oxoethyl)-N-(trans-4-((6-hydroxyhexyl)carbamoyl)cyclohexyl)4H-thieno[3,2-b]pyrrole-5-carboxamide (39)]: 0.03 µM; `CCN(C(=O)Cn1c(C(=O)NC2CCC(C(=O)NCCCCCCCC(=O)O)CC2)cc2sccc21)c1cccc(C)c1` (stereo not drawn) [8-(trans-4-(4-(2-(Ethyl(m-tolyl)amino)-2-oxoethyl)-4H-thieno[3,2-b]pyrrole-5carboxamido)cyclohexane-1-carboxamido)octanoic acid (42)]: 0.031 µM; `CCCCNC(=O)C1CCC(NC(=O)c2cc3sccc3n2CC(=O)N(CC)c2cccc(C)c2)CC1` (stereo not drawn) [N-(trans-4-(butylcarbamoyl)cyclohexyl)-4-(2-(ethyl(m-tolyl)amino)-2-oxoethyl)-4H-thieno[3,2b]pyrrole-5-carboxamide (34)]: 0.3 µM.
Next, `CCN(C(=O)Cn1c(C(=O)N2CCCC2)cc2sccc21)c1cccc(C)c1` [N-ethyl-2-(5-(pyrrolidine-1-carbonyl)-4H-thieno[3,2-b]pyrrol-4-yl)-N-(m-tolyl)acetamide (6)]: 1.2 µM; `CCN(C(=O)Cn1c(C(=O)NC2CCC(C(=O)NCCO)CC2)cc2sccc21)c1cccc(C)c1` (stereo not drawn) [4-(2-(Ethyl(m-tolyl)amino)-2-oxoethyl)-N-(trans-4-((2-hydroxyethyl)carbamoyl)cyclohexyl)-4Hthieno[3,2-b]pyrrole-5-carboxamide (35)]: 0.83 µM.
In turn, `CCN(C(=O)Cn1c(C(=O)N[C@H]2CC[C@@H](C(=O)OC)CC2)cc2sccc21)c1cccc(C)c1` [Methyl-cis-4-(4-(2-(ethyl(m-tolyl)amino)-2-oxoethyl)-4H-thieno[3,2-b]pyrrole-5carboxamido)cyclohexane-1-carboxylate (9)] came in with an IC50 of 0.23 µM.
In the case of `CCN(C(=O)Cn1c(C(=O)N[C@H]2CC[C@H](C(=O)OC)CC2)cc2sccc21)c1ccccc1C` [Methyl trans-4-(4-(2-(ethyl(o-tolyl)amino)-2-oxoethyl)-4H-thieno[3,2-b]pyrrole-5carboxamido)cyclohexane-1-carboxylate (19)] it was 0.69 µM.
In the case of `CCN(C(=O)Cn1c(C(=O)N[C@H]2CC[C@H](C(=O)OC)CC2)cc2sccc21)c1cccc(C(C)C)c1` (mixture of isomers) [Methyl trans-4-(4-(2-(ethyl(3-isopropylphenyl)amino)-2-oxoethyl)-4H-thieno[3,2-b]pyrrole-5carboxamido)cyclohexane-1-carboxylate (23)] it was 0.13 µM; in that of `CCN(C(=O)Cn1cccc1C(=O)N[C@H]1CC[C@H](C(=O)OC)CC1)c1cccc(C)c1` [Methyl trans-4-(1-(2-(ethyl(m-tolyl)amino)-2-oxoethyl)-1H-pyrrole-2carboxamido)cyclohexane-1-carboxylate (28)], 7.7 µM.
In turn, `CCN(C(=O)Cn1c(C(=O)NC2CCC(C(=O)NCCCCCCN)CC2)cc2sccc21)c1cccc(C)c1` (stereo not drawn) [N-(trans-4-((6-aminohexyl)carbamoyl)cyclohexyl)-4-(2-(ethyl(m-tolyl)amino)-2-oxoethyl)-4Hthieno[3,2-b]pyrrole-5-carboxamide hydrochloride (40)] displayed an IC50 of 0.063 µM.
In the case of `CCCCCCN(C(=O)Cn1c(C(=O)NC2CCCCC2)cc2sccc21)c1cccc(C)c1` [N-cyclohexyl-4-(2-(hexyl(m-tolyl)amino)-2-oxoethyl)-4H-thieno[3,2-b]pyrrole-5-carboxamide (16)] it was 5.6 µM.
Take `COCCOCCN(C(=O)Cn1c(C(=O)NC2CCCCC2)cc2sccc21)c1cccc(C)c1` [N-cyclohexyl-4-(2-((2-(2-methoxyethoxy)ethyl)(m-tolyl)amino)-2-oxoethyl)-4H-thieno[3,2b]pyrrole-5-carboxamide (14)]: the IC50 was found to be 16.5 µM.
In the case of `Cc1cccc(NC(=O)Cn2c(C(=O)NC3CCCCC3)cc3sccc32)c1` [N-cyclohexyl-4-(2-oxo-2-(m-tolylamino)ethyl)-4H-thieno[3,2-b]pyrrole-5-carboxamide (13)] it was 45.2 µM.
Next, `CCN(C(=O)Cn1c(C(=O)N[C@H]2CC[C@H](C(=O)OC)CC2)cc2occc21)c1cccc(C)c1` [Methyl trans-4-(4-(2-(ethyl(m-tolyl)amino)-2-oxoethyl)-4H-furo[3,2-b]pyrrole-5carboxamido)cyclohexane-1-carboxylate (31)]: 0.59 µM.
In the case of `CCN(C(=O)Cn1c(C(=O)N[C@H]2CC[C@H](C(=O)OC)CC2)cc2ccc(OC)cc21)c1cccc(C)c1` [Methyl trans-4-(1-(2-(ethyl(m-tolyl)amino)-2-oxoethyl)-6-methoxy-1H-indole-2carboxamido)cyclohexane-1-carboxylate (30)] it was 3.4 µM.
Take `CCN(C(=O)Cn1c(C(=O)NC2CCC(C(=O)NCCCC(=O)O)CC2)cc2sccc21)c1cccc(C)c1` (trans isomer) [4-(trans-4-(4-(2-(Ethyl(m-tolyl)amino)-2-oxoethyl)-4H-thieno[3,2-b]pyrrole-5carboxamido)cyclohexane-1-carboxamido)butanoic acid (37)]: the IC50 worked out at 0.89 µM.
In the case of `CCN(C(=O)Cn1c(C(=O)NC2CCC(C(=O)NCCCCCCS(=O)(=O)O)CC2)cc2sccc21)c1cccc(C)c1` (trans isomer) [Sodium 6-(trans-4-(4-(2-(ethyl(m-tolyl)amino)-2-oxoethyl)-4H-thieno[3,2-b]pyrrole-5carboxamido)cyclohexane-1-carboxamido)hexane-1-sulfonate (43)] it was 0.071 µM; in that of `CCN(C(=O)Cn1c(C(=O)N[C@H]2CC[C@H](C(=O)OC)CC2)cc2sccc21)c1cccc(C)c1` [trans-Methyl-4-(4-(2-(ethyl(m-tolyl)amino)-2-oxoethyl)-4H-thieno[3,2-b]pyrrole-5carboxamido)cyclohexane-1-carboxylate (8)], 0.15 µM; in that of `CCCCCCNC(=O)C1CCC(NC(=O)c2cc3sccc3n2CC(=O)N(CC)c2cccc(C)c2)CC1` (trans isomer) [4-(2-(Ethyl(m-tolyl)amino)-2-oxoethyl)-N-(trans-4-(hexylcarbamoyl)cyclohexyl)-4H-thieno[3,2b]pyrrole-5-carboxamide (38)], 0.16 µM.
As to `COC(=O)[C@H]1CC[C@H](NC(=O)c2cc3sccc3n2CC(=O)N2CCCc3cc(C)ccc32)CC1` [Methyl trans-4-(4-(2-(6-methyl-3,4-dihydroquinolin-1(2H)-yl)-2-oxoethyl)-4Hthieno[3,2-b]pyrrole-5-carboxamido)cyclohexane-1-carboxylate (21)], the IC50 turned out to be 20.2 µM.
In the case of `CCN(C(=O)Cn1c(C(=O)Nc2cccc(C(=O)OC)c2)cc2sccc21)c1cccc(C)c1` [Methyl 3-(4-(2-(ethyl(m-tolyl)amino)-2-oxoethyl)-4H-thieno[3,2-b]pyrrole-5carboxamido)benzoate (11)] it was 10.7 µM.

For the origin of these results see BindingDB's records for doi:10.1021/acschembio.6b01129 (Promega Biosciences LLC, 2017).
